pEC50: −log10 of the molar value.

One series deals with T1, Rev-Erb alpha (Homo sapiens, UniProt P20393).
T1 sequence (P20393 284-614 limits assumed): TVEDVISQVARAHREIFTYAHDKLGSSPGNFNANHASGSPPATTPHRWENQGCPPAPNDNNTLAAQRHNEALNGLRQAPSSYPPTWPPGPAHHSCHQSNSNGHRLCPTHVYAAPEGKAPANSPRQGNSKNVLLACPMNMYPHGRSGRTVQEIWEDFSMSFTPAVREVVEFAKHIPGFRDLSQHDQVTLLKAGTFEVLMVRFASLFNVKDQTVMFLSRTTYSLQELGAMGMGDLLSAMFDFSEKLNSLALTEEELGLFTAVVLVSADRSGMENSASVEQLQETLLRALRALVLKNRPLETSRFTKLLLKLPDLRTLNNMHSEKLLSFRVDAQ
The experiment in a line: M2H (mammalian two-hybrid) cellular activation assay of Rev-Erb alpha. It is filed as cell-based. Particulars: M2H assay, HEK293 cells; for pEC50: Gal4-Rev-Erb alpha / VP16-NCoR, luciferase reporter; for Emax: relative to DMSO, at the tested dose, read-out: TOP activation. In outline:
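Six-point dose-response, 18 h, 37 °C, serum-free, in HEK293 cells carrying a Gal4-RE luciferase reporter with Gal4-Rev-Erb alpha or beta plus VP16-NCoR (corepressor interaction readout). EC50 and TOP activation (%) derived from luminescence across four experiments.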
(In general: Reporter assays use an easily measured gene product as a stand-in for the process of interest.)

In general, melting point refers to the temperature of the solid-liquid transition. One may read the pEC50 as the EC50 on a negative log10 scale, so that one unit is a factor of ten. Low readings indicate a high EC50, high ones a low EC50. In turn, `COC(=O)CCNc1ccc(Oc2ccc3nnc(Cl)n3n2)c(-c2ccccc2)c1` [Cpd.4-190, 3-chloro-6-(5-methyloxycarbonylethylamino-biphenyl-2-yloxy)-[1,2,4]triazolo[4,3-b]pyridazine] gave a melting point of 52 to 57 °C. For the same compound, on Rev-Erb alpha, the pEC50 is 5.22 to 6.00.

In the case of `CCC(=O)Nc1ccc(Oc2ccc3nnc(Cl)n3n2)c(-c2ccccc2)c1` [Cpd.4-191, 3-chloro-6-(5-ethylcarbonylamino-biphenyl-2-yloxy)-[1,2,4]triazolo[4,3-b]pyridazine], the melting point was in the range of 163 to 165 °C. This compound gave a pEC50 at Rev-Erb alpha of 5.22 to 6.00.

The compound `COc1ncc(F)cc1-c1ccc(C(F)(F)F)cc1Oc1cc(C)c2nnc(Cl)n2n1` [Cpd.4-193, 3-chloro-8-methyl-6-((2-(2-methoxy-5-fluoropyridin-3-yl))-5-(trifluoromethyl)-phenoxy)-[1,2,4]triazolo[4,3-b]pyridazine] came in with a melting point of 130 to 132 °C. At Rev-Erb alpha, this compound gave a pEC50 of 6.00 to 7.00.

In the case of `Clc1ccc(Oc2ccc3nnc(Cl)n3n2)c(-c2cncnc2)c1` [Cpd.4-194, 3-chloro-6-(4-chloro-2-(pyrimidin-5-yl)phenoxy)-[1,2,4]triazolo[4,3-b]pyridazine], the melting point lay in the range of 152 to 155 °C. In addition, at Rev-Erb alpha, the pEC50 was less than 5.22 and the Emax is greater than 130%.

Regarding `COc1ncc(-c2cc(Cl)ccc2Oc2ccc3nnc(Cl)n3n2)cn1` [Cpd.4-195, 3-chloro-6-(4-chloro-2-(2-methoxypyrimidin-5-yl)phenoxy)-[1,2,4]triazolo[4,3-b]pyridazine], the melting point was in the range of 210 to 211 °C. At Rev-Erb alpha, the pEC50 is less than 5.22 and the Emax was greater than 130%.

The compound `Cc1ccc(-c2ccc(C(F)(F)F)cc2Oc2ccc3nnc(Cl)n3n2)cn1` [Cpd.4-196, 3-chloro-6-(2-(6-methylpyridin-3-yl)-5-(trifluoromethyl)phenoxy)-[1,2,4]triazolo[4,3-b]pyridazine] yielded a melting point of 212 to 214 °C. Besides, at Rev-Erb alpha, the negative-log EC50 (pEC50) was 5.22 to 6.00.

In turn, `Fc1ccc2c(c1)c(Oc1cc(C(F)(F)F)ccc1-c1ccccc1)nn1c(Cl)nnc21` [Cpd.5-3, 3-chloro-6-(4-trifluoromethyl-biphenyl-2-yloxy)-8-fluoro-[1,2,4]triazolo[3,4-a]phthalazine] registered a melting point of 213 to 215 °C. This compound had a pEC50 at Rev-Erb alpha of 6.00 to 7.00.

The compound `FC(F)(F)c1ccc(-c2ccccc2)c(Oc2nn3c(Cl)nnc3cc2-c2ccccc2)c1` [Cpd.5-5, 3-chloro-7-phenyl-6-(4-trifluoromethyl-biphenyl-2-yloxy)-[1,2,4]triazolo[4,3-b]pyridazine] registered a melting point of 190 to 192 °C. Moreover, the pEC50 on Rev-Erb alpha was 6.00 to 7.00.

The compound `Cc1cc(Oc2cc(C(F)(F)F)ccc2-c2ccccc2)nn2c(Cl)nnc12` [Cpd.5-6, 3-chloro-8-methyl-6-(4-trifluoromethyl-biphenyl-2-yloxy)-[1,2,4]triazolo[4,3-b]pyridazine] showed a melting point of 169 to 172 °C. The same compound showed a pEC50 at Rev-Erb alpha greater than 7.00.

The compound `Cc1cc2nnc(Cl)n2nc1Oc1cc(C(F)(F)F)ccc1-c1ccccc1` [Cpd.5-7, 3-chloro-7-methyl-6-(4-trifluoromethyl-biphenyl-2-yloxy)-[1,2,4]triazolo[4,3-b]pyridazine] registered a melting point of 163 to 165 °C. The compound also gave a pEC50 on Rev-Erb alpha of 6.00 to 7.00.

`Cc1ccc2c(Oc3cc(C(F)(F)F)ccc3-c3ccccc3)nn3c(Cl)nnc3c2c1` [Cpd.5-9, 3-chloro-6-(4-trifluoromethyl-biphenyl-2-yloxy)-9-methyl-[1,2,4]triazolo[3,4-a]phthalazine]: the melting point was 229 to 231 °C. In addition, the negative logarithm of the EC50 (pEC50) at Rev-Erb alpha was 6.00 to 7.00.

In turn, `Cc1ccc2c(c1)c(Oc1cc(C(F)(F)F)ccc1-c1ccccc1)nn1c(Cl)nnc21` [Cpd.5-10, 3-chloro-6-(4-trifluoromethyl-biphenyl-2-yloxy)-8-methyl-[1,2,4]triazolo[3,4-a]phthalazine] displayed a melting point of 195 to 197 °C. At Rev-Erb alpha, this compound had a pEC50 of 6.00 to 7.00.

Compound `CC(C)c1cc2nnc(Cl)n2nc1Oc1cc(C(F)(F)F)ccc1-c1ccccc1` [Cpd.5-11, 3-chloro-7-isopropyl-6-(4-trifluoromethyl-biphenyl-2-yloxy)-[1,2,4]triazolo[4,3-b]pyridazine] gave a melting point of 55 to 58 °C. The compound further had a pEC50 on Rev-Erb alpha of 6.00 to 7.00.

On to `CCc1cc(Oc2cc(C(F)(F)F)ccc2-c2ccccc2)nn2c(Cl)nnc12` [Cpd.5-13, 3-chloro-8-ethyl-6-(4-trifluoromethyl-biphenyl-2-yloxy)-[1,2,4]triazolo[4,3-b]pyridazine], for which the melting point fell in the range of 139.5 to 141.8 °C. The compound further had a negative logarithm of the EC50 (pEC50) on Rev-Erb alpha of 6.00 to 7.00.

`FC(F)(F)c1ccc(-c2cccnc2)c(Oc2nn3c(Cl)nnc3c3ccccc23)c1` [Cpd.5-15, 3-chloro-6-(2-(pyridin-3-yl)-5-(trifluoromethyl)phenoxy)-[1,2,4]triazolo[3,4-a]phthalazine] displayed a melting point of 175 to 177 °C. Further, at Rev-Erb alpha, the negative-log EC50 (pEC50) is greater than 7.00.

Take `COc1ncccc1-c1ccc(C(F)(F)F)cc1Oc1cc(C)c2nnc(Cl)n2n1` [Cpd.5-23, 3-chloro-6-(2-(2-methoxypyridin-3-yl)-5-(trifluoromethyl)phenoxy)-8-methyl-[1,2,4]triazolo[4,3-b]pyridazine]: the melting point fell in the range of 156 to 158 °C. The compound also showed a pEC50 at Rev-Erb alpha of 5.22 to 6.00.

Compound `COc1ncccc1-c1ccc(C(F)(F)F)cc1Oc1nn2c(Cl)nnc2cc1C` [Cpd.5-24, 3-chloro-7-methyl-6-((2-(2-methoxypyridin-3-yl))-5-(trifluoromethyl)phenoxy)-[1,2,4]triazolo[4,3-b]pyridazine] displayed a melting point of 176 to 178 °C. At Rev-Erb alpha, the negative logarithm of the EC50 (pEC50) is 5.22 to 6.00.

Consider `COc1ncc(C(F)(F)F)cc1-c1ccc(C(F)(F)F)cc1Oc1nn2c(Cl)nnc2cc1C` [Cpd.5-26, 3-chloro-7-methyl-6-((2-(2-methoxy-5-(trifluoromethyl)pyridin-3-yl))-5-(trifluoromethyl)phenoxy)-[1,2,4]triazolo[4,3-b]pyridazine], for which the melting point fell in the range of 194 to 196 °C. Moreover, the pEC50 at Rev-Erb alpha was 5.22 to 6.00.

`COc1ncc(C)cc1-c1ccc(C(F)(F)F)cc1Oc1cc(C)c2nnc(Cl)n2n1` [Cpd.5-27, 3-chloro-8-methyl-6-((2-(2-methoxy-5-methylpyridin-3-yl))-5-(trifluoromethyl)phenoxy)-[1,2,4]triazolo[4,3-b]pyridazine]: the melting point lay within 117 to 119 °C. Also, on Rev-Erb alpha, the pEC50 is 5.22 to 6.00.

Regarding `Cc1cc(Oc2cc(C(F)(F)F)ccc2-c2cccnc2)nn2c(C(F)(F)F)nnc12` [Cpd.5-32, 8-methyl-6-(2-(pyridin-3-yl)-5-(trifluoromethyl)phenoxy)-3-(trifluoromethyl)-[1,2,4]triazolo[4,3-b]pyridazine], the melting point was in the range of 151 to 153 °C. Moreover, at Rev-Erb alpha, the pEC50 is less than 5.22 and the Emax was greater than 130%.

As to `Cc1cc2nnc(C(F)(F)F)n2nc1Oc1cc(C(F)(F)F)ccc1-c1cccnc1` [Cpd.5-33, 7-methyl-6-(2-(pyridin-3-yl)-5-(trifluoromethyl)phenoxy)-3-(trifluoromethyl)-[1,2,4]triazolo[4,3-b]pyridazine], the melting point lay in the range of 173 to 175 °C. In addition, at Rev-Erb alpha, the pEC50 is 5.22 to 6.00.

`Cc1ncc(-c2ccc(C(F)(F)F)cc2Oc2cc(C)c3nnc(Cl)n3n2)cn1` [Cpd.5-37, 3-chloro-8-methyl-6-((2-(2-methylpyrimidin-5-yl))-5-(trifluoromethyl)phenoxy)-[1,2,4]triazolo[4,3-b]pyridazine]: the melting point was in the range of 200 to 202 °C. Moreover, the negative-log EC50 (pEC50) at Rev-Erb alpha was 5.22 to 6.00.

`COc1nccc(C)c1-c1ccc(C(F)(F)F)cc1Oc1cc(C)c2nnc(Cl)n2n1` [Cpd.5-39, 3-chloro-8-methyl-6-((2-(2-methoxy-4-methylpyridin-3-yl))-5-(trifluoromethyl)phenoxy)-[1,2,4]triazolo[4,3-b]pyridazine] gave a melting point of 139 to 141 °C. The compound further gave a pEC50 on Rev-Erb alpha of 5.22 to 6.00.

Consider `COc1nccc(C)c1-c1ccc(C(F)(F)F)cc1Oc1nn2c(Cl)nnc2cc1C` [Cpd.5-40, 3-chloro-7-methyl-6-((2-(2-methoxy-4-methylpyridin-3-yl))-5-(trifluoromethyl)phenoxy)-[1,2,4]triazolo[4,3-b]pyridazine], for which the melting point lay in the range of 161 to 162 °C. Besides, at Rev-Erb alpha, the pEC50 is 5.22 to 6.00.

As to `COc1ncc(F)cc1-c1ccc(C(F)(F)F)cc1Oc1nn2c(Cl)nnc2cc1C` [Cpd.5-41, 3-chloro-7-methyl-6-((2-(2-methoxy-5-fluoropyridin-3-yl))-5-(trifluoromethyl)phenoxy)-[1,2,4]triazolo[4,3-b]pyridazine], the melting point was 163 to 166 °C. On Rev-Erb alpha, this compound showed a negative-log EC50 (pEC50) of 6.00 to 7.00.

For the compound `CCc1nnc2cc(C)c(Oc3cc(C(F)(F)F)ccc3-c3cncnc3)nn12` [Cpd.5-43, 3-ethyl-7-methyl-6-(2-(pyrimidin-5-yl)-5-(trifluoromethyl)phenoxy)-[1,2,4]triazolo[4,3-b]pyridazine], the melting point was in the range of 149 to 150 °C. The same compound gave a negative logarithm of the EC50 (pEC50) on Rev-Erb alpha of 5.22 to 6.00.

As to `Cc1cc2nncn2nc1Oc1cc(C(F)(F)F)ccc1-c1cncnc1` [Cpd.5-44, 7-methyl-6-(2-(pyrimidin-5-yl)-5-(trifluoromethyl)phenoxy)-[1,2,4]triazolo[4,3-b]pyridazine], the melting point is 179 to 181 °C. Further, at Rev-Erb alpha, the negative logarithm of the EC50 (pEC50) is less than 5.22 and the Emax was greater than 130%.

(Values after patent US9586963B2 (GENFIT, priority 2011, dated 2017).)
